For five compounds, IC50 results are on record in US9867826B2, “Heterocycles as modulators of kinase activity” (Merck Patent GmbH, priority 2013, dated 2018).

Structures are written as SMILES. A value given as a limit tells only on which side of the number the result lay.

For one assay, the target named is His-AKT (Full Length) (Homo sapiens (Human), UniProt P31749). The assay can be described thus: AKT enzyme assay. Particulars: 160 uM ATP. The assay is classed as biochemical. Here is the method:
A TTP Mosquito liquid handling instrument was used to place 125 nl of the appropriate concentration of inhibitor in 100% DMSO (for a dose response curve calculation) into each well of a 384-well plate. To this reaction components were added to a final volume of 12.5 μl: • 0.1 ng/μl His-AKT (Full Length), (Invitrogen, Part # P2999, Lot #641228C). • 160 uM ATP (Fluka, 02055) • 1 mM DTT (Sigma, D0632) • 1 mM MgCl2 (Sigma, M1028) • 1 μM substrate peptide (sequence FITC-AHA-GRPRTSSFAEG-NH2), synthesized by Tufts Peptide Synthesis service. • 100 mM HEPES pH 7.5 (Calbiochem, 391338) • 0.015% Brij-35 (Sigma, B4184)
The reaction was incubated for 90 min at 25 C., and then stopped by the addition of 70 μl of Stop buffer (100 mM HEPES pH 7.5, 0.015% Brij-35, 10 mM EDTA (Sigma, E7889)).
The plate was read on a Caliper LC 3000 in an Off-Chip mobility shift assay format, using the following parameters for a 12-sipper chip: screening pressure −2.3 psi, upstream voltage −500, and downstream voltage −3000. These conditions caused unphosphorylated substrate and phosphorylated product peptide to resolve as separate peaks allowing direct measurement of percentage of conversion of substrate to product.
The percent conversion was plotted against concentration of inhibitor to produce a sigmoidal dose response curve, from which an IC50 was calculated.

The next assay has as its target P70S6K (T412E mutant) (Homo sapiens (Human), UniProt P23443, T412E). The experiment in a line: P70S6K enzyme assay. The assay is classed as biochemical. To be noted: 24 μM ATP. Here is the method: P70S6K inhibitor compounds were diluted and plated in 96 well plates. A reaction mixture including the following components was then added to the compound plate to initiate the enzyme reaction; P70S6K (3 nM, T412E mutant, Millipore) was mixed with 24 μM ATP in an assay buffer containing 100 mM Hepes (pH 7.5), 5 mM MgCl2, 1 mM DTT, 0.015% Brij and 1 μM of the substrate peptide FITC-AHA-AKRRRLSSLRA-OH (derived from the S6 ribosomal protein sequence, FITC=fluorescein isothiocyanate, AHA=6-aminohexanoic acid). The reaction was incubated for 90 min at 25° C., before the addition of 10 mM EDTA to stop the reaction. The proportion of substrate and product (phosphorylated) peptide was analysed on a Caliper Life Sciences Lab Chip 3000, using a pressure of −1.4 psi, and upstream and downstream voltages of −3000 and −700 respectively. Product peaks were resolved before substrate peaks on the resulting chromatograms.

Chain of P70S6K (T412E mutant) (P23443 whole entry T412E): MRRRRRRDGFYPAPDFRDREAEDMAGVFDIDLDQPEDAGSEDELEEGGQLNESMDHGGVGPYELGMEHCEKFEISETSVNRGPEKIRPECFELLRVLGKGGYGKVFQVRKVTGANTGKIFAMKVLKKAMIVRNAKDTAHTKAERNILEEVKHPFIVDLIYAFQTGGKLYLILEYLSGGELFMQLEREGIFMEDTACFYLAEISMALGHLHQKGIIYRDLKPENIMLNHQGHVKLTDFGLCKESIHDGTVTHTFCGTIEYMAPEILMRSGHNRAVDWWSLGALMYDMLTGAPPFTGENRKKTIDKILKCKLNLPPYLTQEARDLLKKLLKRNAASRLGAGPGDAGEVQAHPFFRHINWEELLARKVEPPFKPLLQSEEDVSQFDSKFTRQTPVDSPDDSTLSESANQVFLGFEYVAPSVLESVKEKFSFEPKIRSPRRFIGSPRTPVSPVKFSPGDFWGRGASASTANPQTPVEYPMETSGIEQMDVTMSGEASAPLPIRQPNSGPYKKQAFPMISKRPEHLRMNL
Chain of His-AKT (Full Length) (P31749 whole entry): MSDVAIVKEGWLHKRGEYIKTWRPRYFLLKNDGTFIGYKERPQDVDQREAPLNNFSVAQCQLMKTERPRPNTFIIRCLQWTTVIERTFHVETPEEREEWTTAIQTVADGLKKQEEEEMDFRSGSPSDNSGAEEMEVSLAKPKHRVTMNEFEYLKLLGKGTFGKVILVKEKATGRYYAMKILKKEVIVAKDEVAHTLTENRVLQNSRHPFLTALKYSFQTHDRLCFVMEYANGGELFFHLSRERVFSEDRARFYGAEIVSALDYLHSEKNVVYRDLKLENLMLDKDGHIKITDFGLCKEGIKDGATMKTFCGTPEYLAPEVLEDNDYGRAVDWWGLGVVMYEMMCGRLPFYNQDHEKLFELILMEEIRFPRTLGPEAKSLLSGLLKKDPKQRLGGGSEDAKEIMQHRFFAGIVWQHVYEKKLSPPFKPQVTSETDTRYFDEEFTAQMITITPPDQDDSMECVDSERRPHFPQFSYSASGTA

The term IC50 denotes the concentration that gives 50% inhibition. As for `CN(C)CCn1cc(-c2ccc(F)c(C(F)(F)F)c2)nc1[C@@H]1CCN(c2ncnc(N)c2C#N)C[C@@H]1F` (racemic) [Compound 14, 4-Amino-6-{3,4-cis-4-[1-(2-dimethylamino-ethyl)-4-(4-fluoro-3-trifluoromethyl-phenyl)-1H-imidazol-2-yl]-3-fluoro-piperidin-1-yl}-pyrimidine-5-carbonitrile], the IC50 against His-AKT (Full Length) and at P70S6K (T412E mutant) was 1 to 10 nM in each case.
For the compound `CCc1c(N)ncnc1N1CC[C@@H](c2nc(-c3ccc(F)c(C(F)(F)F)c3)cn2CCN2CCC2)[C@@H](F)C1` (racemic) [Compound 13, 6-{3,4-cis-4-[1-(2-Azetidin-1-yl-ethyl)-4-(4-fluoro-3-trifluoromethyl-phenyl)-1H-imidazol-2-yl]-3-fluoro-piperidin-1-yl}-5-ethyl-pyrimidin-4-ylamine], the IC50 against His-AKT (Full Length) and against P70S6K (T412E mutant) was 1 to 10 nM each time.
As to `CN(C)CCn1cc(-c2ccc(F)c(C(F)(F)F)c2)nc1[C@@H]1CCN(c2ncnc(N)c2C(N)=O)C[C@@H]1F` (single isomer, unassigned) [Compound 21], the half-inhibitory concentration (IC50) against His-AKT (Full Length) was > 10 nM; against P70S6K (T412E mutant), 1 to 10 nM.
On the same counts, the results for `CCOc1c(N)ncnc1N1CC[C@@H](c2nc(-c3ccc(F)c(C(F)(F)F)c3)cn2CCN2CCC2)[C@@H](F)C1` (racemic) [Compound 16, 6-{3,4-cis-4-[1-(2-Azetidin-1-yl-ethyl)-4-(4-fluoro-3-trifluoromethyl-phenyl)-1H-imidazol-2-yl]-3-fluoro-piperidin-1-yl}-5-ethoxy-pyrimidin-4-ylamine] are 1 to 10 nM and 1 to 10 nM.
On the same counts, the results for `N#Cc1c(N)ncnc1N1CC[C@@H](c2nc(-c3ccc(F)c(C(F)(F)F)c3)cn2CCN2CCC2)[C@@H](F)C1` (racemic) [Compound 1, 4-Amino-6-{3,4-cis-4-[1-(2-azetidin-1-yl-ethyl)-4-(4-fluoro-3-trifluoromethyl-phenyl)-1H-imidazol-2-yl]-3-fluoro-piperidin-1-yl}-pyrimidine-5-carbonitrile] are < 1 nM and < 1 nM.
